According to paper PMC8019567 (Parasite, 2021):
≈ marks a conversion by molar mass, not a printed value. Like-named read-outs stand apart in the source and are kept apart here.

Assays:
[1] = first (pilot) study; topical esafoxolaner only, twice at a 28-day interval, 23× the maximum exposure dose; cats; cited from earlier work
[2] = Study #2: dose proportionality/linearity after a single topical dose of NexGard Combo at 0.5x, 1x, 2x; assay type: in vivo, cats
Procedure: Blood samples were collected prior to treatment and over a period of 91 days after the treatment, as detailed in Table 1. […] Dose proportionality for the three active ingredients was assessed by calculating the linear relationship between AUC or Cmax and the dose using the simple linear regression model.

C. felis = system: C. felis; design: method as in internal Sponsor’s data; conditions: plasma level, ref internal Sponsor’s data; cited from earlier work
[3] = in vivo
Source text: (§1) All topical treatments were applied on one spot directly on the skin, after parting the hair, in the midline of the neck between the base of the skull and the shoulder blades. The intra-venous injection was given in the cephalic vein.
(§2) All blood samples were collected into lithium heparin tubes and processed into plasma by centrifugation.
(§3) This study was designed to evaluate the main pharmacokinetic parameters (Cmax, Tmax, Clast, Tlast, half-life, AUC, bioavailability) of the three compounds administered topically once in the novel formulation at the recommended minimum dose, and the non-interference of the three compounds between each other.
(§4) Group 2 was treated topically with esafoxolaner alone, formulated with identical solvents/excipients as those of the novel formulation, for non-interference evaluation of esafoxolaner. […] Group 4 was treated intravenously with esafoxolaner for bioavailability calculation of topical esafoxolaner in the novel formulation.
(§5) The cat plasma samples and internal standards were subjected to semi-automated solid phase extraction in a 96-well plate format followed by reversed-phase HPLC with gradient elution. The extracted analytes were quantified by an AB Sciex API 5000 mass spectrometer system using an electrospray interface. […] Chromatograms were integrated by the Analyst® 1.6.2 software and peak areas were determined.
(§6) The validated lower and upper limits of quantitation were 0.2 and 100 ng/mL, respectively. Sample concentrations were determined based on a fortified matrix calibration curve ranging from 0.2 to 100 ng/mL for each analyte with quality control samples, control plasma samples, and acceptance criteria according to EMA and FDA guidelines [4, 7]. Repeatability (precision), accuracy, assay specificity, dilution, recovery and matrix effect, carryover, stability in plasma and all solutions was established.
(§7) Pharmacokinetic (PK) parameters were calculated from individual plasma concentrations using the non-compartmental analysis function of WinNonlin® software (Phoenix 64 Build, version 6.3). The non-compartmental approach was consistent with the extravascular (topical) or IV bolus route of administration.
(§8) The peak drug plasma concentration Cmax and the time from dosing to the maximum concentration values Tmax were obtained directly from plasma concentration versus time data for each cat and then averaged for each topical treatment group. The terminal elimination phase was determined using at least the final three observed concentrations and not including Cmax. The first order rate constant, λz, associated with the terminal log-linear portion of the curve was estimated via linear regression of the log plasma concentration versus time curve. The terminal plasma half-life using ln (2)/λz was calculated for each animal, and then averaged for each treatment group. The area under the concentration versus time curve (AUC) from the time of dosing to the time to the last quantifiable concentration (AUC0−Tlast) was calculated using the linear up, log down trapezoidal method, and extrapolated to infinity (AUC0−inf) using the formula AUC0−Tlast + Clast/λz.
(§9) The systemic clearance of esafoxolaner in plasma (Cls) defined as dose/AUC0−inf, and the volume of distribution at steady state (Vss), which is AUMC0−inf/AUC0−inf × Cls, was calculated from WinNonlin® for the IV esafoxolaner group only. Due to the long terminal plasma half-life of esafoxolaner, each cat was not used as its own control and bioavailability was calculated on the average.

[4] = system: ticks (Ixodes scapularis); design: method as in internal Sponsor’s data; conditions: plasma level, ref internal Sponsor’s data; cited from earlier work
ear mites = system: ear mites; design: method as in PMID 29887026; conditions: off-label in cats, 2.5 mg/kg; cited from earlier work
in vivo = conditions: topical or ocular, 10 mg/kg
Source text: as §1, §2, §3, §4, §5, §6, §7, §8, §9

[5] = design: method as in PMID 24703069; conditions: topical Broadline; cats; cited from earlier work
[6] = Study #1: single-dose pharmacokinetics and non-interference in cats (plasma, LC-MS/MS); conditions: NexGard Combo single topical at minimum recommended dose
Source text: as §1, §2, §3, §4, §5, §6, §7, §8, §9

[7] = Study #2: multiple-dose kinetics, accumulation and time to steady state (five topical doses at 28-day intervals); assay type: in vivo; conditions: repeated topical NexGard Combo at minimum recommended dose at 4-week intervals; cats
Procedure: Group 4, the accumulation and time to steady state group, was treated five times at 28-day intervals, topically with NexGard® Combo at the minimum recommended dose. In this group, blood samples were collected prior to each treatment, during the 4 weeks following each treatment, and for 8 weeks after the last treatment, as detailed in Table 1.
Chromatograms were integrated by the Analyst® 1.6.2 software and peak areas were determined.
The validated lower and upper limits of quantitation were 0.2 and 100 ng/mL, respectively. Sample concentrations were determined based on a fortified matrix calibration curve ranging from 0.2 to 100 ng/mL for each analyte with quality control samples, control plasma samples, and acceptance criteria according to EMA and FDA guidelines.
Accumulation ratios were calculated using Cmax and AUC for the three active ingredients after the 1st and 5th dose following five topical doses of the novel formulation.

[8] = 0.5× group compared to 1× group
[9] = NexGard Combo single topical 0.5× (esafoxolaner 0.72, praziquantel 5, eprinomectin 0.25 mg/kg), cats, mean
[10] = NexGard Combo single topical 1× (esafoxolaner 1.44, praziquantel 10, eprinomectin 0.5 mg/kg), cats, mean
[11] = NexGard Combo single topical 2× (esafoxolaner 2.88, praziquantel 20, eprinomectin 1 mg/kg), cats, mean

## O=C(CNC(=O)c1ccc(C2=NO[C@@](c3cc(Cl)cc(C(F)(F)F)c3)(C(F)(F)F)C2)c2ccccc12)NCC(F)(F)F [Esafoxolaner, esafoxolaner]
[1]
  adverse reactions: no significant adverse reactions
[2]; in vivo
  dose proportionality of PK parameters: dose-proportional
  persistence of a quantifiable plasma concentration: more than 13 weeks
C. felis
  EC90: 0.0191 ± 0.0021 µg/mL (≈ 0.0305 µM)
[3]
  Vss (volume of distribution): 4.0 L/kg
  absolute (topical) bioavailability: 47.2%
  time until which efficacious plasma levels (EC90) were maintained, from 24 h: 6-8 weeks
[3]; iv, 1.44 mg/kg
  AUC0−Tlast: 9586 ± 1985 ng·days/mL
  AUC0−inf: 10,542 ± 2029 day × ng/mL
  Cl (systemic clearance): 5.87 ± 1.23 mL/h/kg
  T1/2 (plasma half-life): 504 ± 101 h
  Vss (volume of distribution at steady-state): 4.016 ± 1.19 L/kg
  half-life, range of individuals: 355 to 631 h
[3]; topical or ocular, 1.44 mg/kg
  AUC0−Tlast: 6368 ± 1665 ng·days/mL
  AUC0−inf: 7181 ± 2250 ng·days/mL
  Cmax: 218 ± 68 ng/mL
  T1/2 (plasma half-life): 499 ± 154 h
  Tmax: 90 ± 74.4 h
  individual plasma half-lives (range): 19.4 to 27.8 days
[4]
  EC90: 0.0431 µg/mL (≈ 0.0689 µM)

## O=C(CNC(=O)c1ccc(C2=NOC(c3cc(Cl)cc(C(F)(F)F)c3)(C(F)(F)F)C2)c2ccccc12)NCC(F)(F)F (stereo not drawn) [afoxolaner]
Ear mites
  acaricidal efficacy against ear mites: efficacious

## O=C(C1CCCCC1)N1CC(=O)N2CCc3ccccc3C2C1 (stereo not drawn) [Praziquantel, praziquantel]
In vivo
  Cmax: 107 ± 59 ng/mL
  Tmax: 7.01 h
  half-life: 103 h
[2]; in vivo, topical or ocular, 5 mg/kg
  Cmax: 54.7 ± 28.8 ng/mL
[2]; in vivo, topical or ocular, 10 mg/kg
  Cmax: 126 ± 87.2 ng/mL
[2]; in vivo, topical or ocular, 20 mg/kg
  Cmax: 317 ± 209 ng/mL
[3]; cat
  time at which maximum concentrations were reached (range): 4 to 8 h
  time of last quantifiable plasma concentrations (range): 7 to 42 days
[5]
  bioavailability in the Broadline formulation: 45%

## eprinomectin
[2]; [8]
  AUC0−Tlast Ratio: 0.5
  Cmax Ratio: 0.4
[2]; 0.5× to 2× the minimum dose (esafoxolaner 0.72–2.88, praziquantel 5–20, eprinomectin 0.25–1.0 mg/kg), single topical NexGard Combo
  dose proportionality of PK parameters: dose-proportional
[2]; 2× group compared to 1× group
  AUC0−Tlast Ratio: 2.4
  Cmax Ratio: 2.3
[2]; [9]
  AUC0−Tlast: 53.6 ± 19.9 ng·days/mL
  Cmax: 9.44 ± 4.26 ng/mL
[2]; [10]
  AUC0−Tlast: 97.8 ± 37.4 ng·days/mL
  Cmax: 24.1 ± 20.8 ng/mL
[2]; [11]
  AUC0−Tlast: 233 ± 133 ng·days/mL
  Cmax: 54.3 ± 35.8 ng/mL
[6]
  mean Tmax: 35 h
[6]; LLOQ 0.2 ng/mL
  time to concentrations below the limit of quantitation, on average: 28 days
[7]
  dose by which steady state was reached: fifth and five
[5]
  bioavailability in the Broadline formulation: 31%
